Experimental data from ChEMBL document CHEMBL3352293, “Exploring in vitro and in vivo Hsp90 inhibitors activity against human protozoan parasites” (Bioorg Med Chem Lett, 2015).
Active and inactive are the calls of the source. No cut-off for these calls is given here.

Experiments:
L6 = assay: Cytotoxicity against rat L6 cells; assay type: cell-based
[1] = tested on: Trypanosoma brucei rhodesiense; assay: Antitrypanosomal activity against Trypanosoma brucei rhodesiense assessed as growth inhibition; assay type: functional, organism-based
Trypanosoma cruzi = assay: Antitrypanosomal activity against Trypanosoma cruzi assessed as growth inhibition; assay type: functional, organism-based
Plasmodium falciparum = assay: Antiplasmodial activity against Plasmodium falciparum assessed as growth inhibition; assay type: functional, organism-based
Giardia intestinalis = assay: Antiprotozoal activity against Giardia lamblia assessed as growth inhibition; assay type: functional, organism-based; details: Giardia duodenalis
[2] = tested on: Trypanosoma brucei rhodesiense; assay: In vivo […] activity against Trypanosoma brucei rhodesiense infected mouse model assessed as clear parasitaemia at 50 mg/kg, ip qd after 4 days; assay type: functional, organism-based; design: dose 50 mg/kg
[3] = tested on: Trypanosoma brucei rhodesiense; assay: Antitrypanosomal activity against Trypanosoma brucei rhodesiense infected mouse model assessed as clear parasitaemia at 50 mg/kg, ip qd for 4 days measured on day 9; assay type: functional, organism-based; design: dose 50 mg/kg
[4] = tested on: Trypanosoma brucei rhodesiense; assay: Antitrypanosomal activity against Trypanosoma brucei rhodesiense infected mouse model assessed as clear parasitaemia at 50 mg/kg, ip qd for 4 days measured on day 11; assay type: functional, organism-based; design: dose 50 mg/kg
Mus musculus = assay: Toxicity in mouse infected with Trypanosoma brucei rhodesiense assessed as death at 50 mg/kg, ip qd after 2 administeration; assay type: organism-based; design: dose 50 mg/kg, route intraperitoneal; details: in vivo

| Compound | IC50 (L6) [nM] | IC50 [1] [nM] | IC50 (Trypanosoma cruzi) [nM] | IC50 (Plasmodium falciparum) [nM] | IC50 (Giardia intestinalis) [nM] | Activity [2] | Activity [3] | Activity [4] | Activity (Mus musculus) |
| --- | --- | --- | --- | --- | --- | --- | --- | --- | --- |
| CCNC(=O)c1noc(-c2cc(C(C)C)c(O)cc2O)c1NC(=O)c1ccco1 | 25 | 12 | 1380 | 17 | 2360 | – | – | – | – |
| CCNC(=O)c1noc(-c2cc(C(C)C)c(O)cc2O)c1NC(=O)c1cc(CN2CCOCC2)on1 | 279 | 10 | 8060 | 36 | 12800 | – | – | – | – |
| COc1cc([C@@H]2c3cc4c(cc3[C@H](O)[C@H]3COC(=O)[C@H]23)OCO4)cc(OC)c1OC [PODOFILOX] | 5 | – | – | – | – | – | – | – | – |
| O=C(Cn1ccnc1[N+](=O)[O-])NCc1ccccc1 [BENZNIDAZOLE] | – | – | 409 | – | – | – | – | – | – |
| CCNC(=O)c1noc(-c2cc(C(C)C)c(O)cc2O)c1NC(=O)c1ccc(OC)cc1 | 7 | 14 | 435 | 29 | 3190 | – | – | – | – |
| CCNC(=O)c1noc(-c2cc(C(C)C)c(O)cc2O)c1NC(=O)C1CCC(OC)CC1 (centres undefined) | 15 | 4 | 2700 | 12 | 8110 | – | – | – | – |
| CCNC(=O)c1noc(-c2cc(C(C)C)c(O)cc2O)c1NC(=O)[C@@H]1CC[C@H](C(=O)OC)C1 | 40 | 763 | 1460 | 26 | 6430 | – | – | – | – |
| CCNC(=O)c1noc(-c2cc(C(C)C)c(O)cc2O)c1NC(=O)[C@H]1CC[C@H](CNS(=O)(=O)c2ccc(F)cc2)CC1 | 888 | 126 | 4200 | 117 | 7570 | – | – | – | – |
| CCNC(=O)c1nnn(-c2cc(C(C)C)c(O)cc2O)c1-c1ccc(CC2CCCC2)cc1 | 8 | 1 | 728 | 2 | 356 | – | – | – | – |
| CCNC(=O)c1nnn(-c2cc(C(C)C)c(O)cc2O)c1-c1ccc(Cn2ccnc2)cc1 | 11 | 3 | 4960 | 1 | 400 | – | – | – | – |
| CCNC(=O)c1nnn(-c2cc(C(C)C)c(O)cc2O)c1-c1ccc(CN2CCOCC2)cc1 | 2 | 1 | 27 | 1 | 67 | – | – | – | – |
| CCNC(=O)c1noc(-c2cc(C(C)C)c(O)cc2O)c1NC(=O)c1ccc(CN2CCOCC2)cc1 | 201 | 18 | 6590 | 25 | 9740 | Active | Active | – | – |
| CCOC(=O)c1noc2c1CN(C(=O)c1cc(C(C)C)c(O)cc1O)CC2 | 563 | 52400 | 616 | 7260 | 2460 | – | – | – | – |
| Nc1nc(N)nc(Nc2ccc([As]3SCC(CO)S3)cc2)n1 (centres undefined) [MELARSOPROL] | – | 3 | – | – | – | – | – | – | – |
| CCNC(=O)c1noc(-c2cc(C(C)C)c(O)cc2O)c1NC(=O)c1cc(CC)on1 | 20 | 18 | 554 | 35 | 4060 | – | – | – | – |
| Cc1ncc([N+](=O)[O-])n1CCO [METRONIDAZOLE] | – | – | – | – | 580 | – | – | – | – |
| CCNC(=O)c1noc(-c2cc(C(C)C)c(O)cc2O)c1NC(=O)CCN1CCOCC1 | 146 | 22 | 16700 | 37 | 983 | Active | – | Active | – |
| CCNC(=O)c1nnn(-c2cc(C(C)C)c(O)cc2O)c1-c1ccc(CNCN2CCOCC2)cc1 | 264 | 4 | 17500 | 4 | 4460 | – | – | – | Toxic |
| CCNC(=O)c1noc2c1CN(C(=O)c1cc(C(C)C)c(O)cc1O)CC2 | 110 | 971 | 996 | 4520 | 4360 | – | – | – | – |
